Reference: paper PMC11796224, “Merck Open Global Health Library in vitro screening against Schistosoma mansoni identified two new substances with antischistosomal activities for further development” (Parasites & Vectors, 2025)
Where two headings read alike, the source gives them in different places.

Key:
adult S. mansoni couples = experiment: In vitro screening of OGHL compounds and analogues against adult S. mansoni couples (Giessen); assay type: cell-based, Schistosoma mansoni; conditions: 10 µM; for Effect on egg production: after 24 h, compared to control
Protocol: For in vitro culture in Giessen, M199 medium (Gibco) containing 10% newborn calf serum, 1% HEPES (1 M) and 1% ABAM solution (10,000 units penicillin, 10 mg streptomycin and 25 µg amphotericin B per millilitre) were used. After perfusion, the worms were transferred to petri dishes with 5 mL medium using featherweight tweezers. The worms were cultured at 37 °C and 5% CO2. After 24 h, stably paired couples were selected for inhibitor assays.
The initial screening by the Giessen team covered the 250 compounds of the OGHL, and in a subsequent, second screening approach, an additional 58 analogues of the compounds OGHL22 and OGHL121, which were tested on S. mansoni couples in vitro. For each compound, three replicates of five couples randomised from different hamsters were used. The couples were transferred to 6-well plates (or 12-well plates) containing 2 mL pre-heated medium. For each compound, the stock solution was pre-diluted in pre-heated medium, and then added to each replicate, resulting in a final volume of 2.5 mL and a final concentration of 10 µM. A negative control was included for all assays. For this, three replicates were prepared with DMSO (0.1%) as volume substitution of the stock solution. The worms were cultured at 37 °C and 5% CO2. As physiological parameters, worm motility, pairing stability, and attachment were assessed after 4 h and 24 h. After 24 h, egg production was also estimated (see below).
For the first screening approach, the Giessen team evaluated pairing stability by counting couples at the time of scoring. Attachment was determined by counting the number of worms (couples or single worms) that were attached to any surface. Motility was scored on a scale of 0–4. The average activity of the worms in the negative control was used as a reference value for normal activity: 4 indicated increased activity, 3 normal activity, 2 reduced activity, 1 little activity with occasional head and tail movements and/or gut movement, 0 no activity for at least 20 s. The number of eggs was estimated after 24 h. Compared to the control, categories for egg production were defined as fewer eggs (score 0), similar numbers of egg (score 1) and more eggs (score 2). The corresponding percentages of the scores were determined based on three replicates. Score 0 corresponded to less than 50% eggs, score 1 to 50–200%, and score 2 to over 200% of the egg count compared to the negative control. The means of the scores were later normalized to the range 0–2 (0–200%).

Schistosoma mansoni = conditions: cited from earlier work
[1] = test system: newly transformed schistosomula (NTS); experiment: In vitro screening against newly transformed schistosomula (Basel); assay type: cell-based, Schistosoma mansoni; conditions: 10 µM, 72 h incubation, Basel team
Protocol: At the Basel lab, infected B. glabrata snails were placed for 4 h under a light source to initiate the shedding of cercariae, which were collected, mechanically transformed into NTS, and kept in M199 medium supplemented with 5% fetal calf serum (FCS), 1% Mäsermix, and 1% penicillin/streptomycin (pen./strep.) 10,000 U/ml, at 37 °C and 5% CO2 [27]. To collect adult S. mansoni, mesenteric veins of infected hamsters were dissected on day 49 post-infection. The worms were placed in supplemented RPMI 1640 medium (containing 5% FCS, 1% pen., and 100 μg/ml strep.) and incubated at 37 °C with 5% CO2 until further use.
The Basel team performed the screening as follows: the stock solutions of each compound from the library (10 mM) were diluted with M199 medium (supplemented with 1% pen./strep., 1% Mäsermix, 5% FCS) and NTS solution (0.7 NTS/µL) in a transparent flat-bottom 96-well plate (Sarstedt, Switzerland), resulting in a final volume of 250 µL, 30–40 NTS, and a drug concentration of 10 µM. For adults, the drugs were diluted to 10 µM in 2 mL with RPMI 1640 medium (supplemented with 1% pen./strep. and 5% FCS) in a 24-well plate (Sarstedt, Switzerland), and three schistosome couples were added. […] For both life stages, DMSO served as a negative control (< 1% of the final volume). The plates were incubated at 37 °C and 5% CO2. […]

Row | SMILES | Effect on egg production (adult S. mansoni couples) | also measured
1 | Cc1cc(C2CCC2)c(S(C)(=O)=O)cc1C(=O)N=C(N)N [OGHL00061] | affected | 
2 | COc1ccc(CNc2nc(CCCCC(=O)O)nc3sc4ccccc4c23)cc1Cl [OGHL00101] | affected | 
3 | COc1ccc(OCC(N)=O)cc1-c1cn2cc(C(=O)NCCc3c(OC)cccc3OC)sc2n1 [OGHL00241] | affected | 
4 | O=C(O)c1ccc(-c2nc(NCc3ccc4c(c3)OCO4)c3cc(Cl)sc3n2)cc1 [OGHL00093] | affected | 
5 | O=C(O)c1ccc(-c2nc(NCc3ccccc3)c3c4c(sc3n2)CCCC4)cc1 [OGHL00079] | affected | 
6 | COc1nc(/C=C/c2nc3n(n2)CCCC3c2ccccc2C(F)(F)F)ccc1-n1cnc(C)c1 (centres unmarked) [OGHL00208] | affected | 
7 | CCCSc1cc(C)c(C(=O)N=C(N)N)cc1S(C)(=O)=O [OGHL00050] | affected | 
8 | COC(=O)c1cc(C(=O)N=C(N)N)c(C)cc1C [OGHL00094] | affected | 
9 | O=C(C1CCCCC1)N1CC(=O)N2CCc3ccccc3C2C1 (centres unmarked) [PZQ, praziquantel] |  | Motility score in the initial approach (adult S. mansoni couples; within 24 h): about 0; EC50 (Schistosoma mansoni; at 4 h): 0.1 µg/mL; EC50 (Schistosoma mansoni; at 72 h, ref 32, read-out: EC50): 100 nM; EC50 (Schistosoma mansoni; at 72 h, ref 33): 0.05 µg/mL
10 | O=C(C1CCCCC1)N1CC(=O)N2CCc3ccccc3[C@@H]2C1 [OGHL00244, (R)-PZQ, reference compound] | drastically reduced | Attachment after 4 h (adult S. mansoni couples; adult couples, Giessen team): strong effects on attachment capacity; Pairing stability after 4 h (adult S. mansoni couples; adult couples, Giessen team): no effect on pairing stability; Pairing stability after 24 h (adult S. mansoni couples; adult couples, Giessen team): no effect on pairing stability; Activity against NTS [1]: greater than 65%
11 | CCc1cc(C)c(C(=O)N=C(N)N)cc1S(C)(=O)=O [OGHL00053] | affected | 
12 | CCCCCCN(Cc1ccc(C#Cc2ccc(CCCC)cc2)cc1)c1ccc(O)c(C(=O)O)c1 [OGHL00126] | affected | 
13 | CCCCc1nc2ccn(Cc3ccccc3C(=O)O)c(=O)c2n1Cc1ccc(-c2ccccc2-c2nn[nH]n2)cc1 [OGHL00034] | affected | 
14 | O=C(C1CCCCC1)N1CC(=O)N2CCc3ccccc3[C@H]2C1 [OGHL00245] |  | Couples separated after 4 h (adult S. mansoni couples): > 50%; Couples separated after 24 h (adult S. mansoni couples): separation of all couples
15 | COc1ccc(CNc2nc(CCCCC(=O)O)nc3sc4c(c23)CCCC4)cc1Cl [OGHL00092] | affected | 
16 | CC1(C)Oc2ccc(C#N)cc2[C@H](n2ccccc2=O)[C@H]1O [OGHL00027] | affected | 
17 | COc1cc(C(=O)Nc2cn(Cc3ccc(Cl)c(Cl)c3)nn2)ccc1-n1cnc(C)c1 [OGHL00219] | affected | 
18 | COc1ccc(OCC(=O)O)cc1-c1cn2cc(C(=O)NCCc3c(OC)cc(Cl)cc3OC)sc2n1 [OGHL00248] | affected | 
